Experimental data from ChEMBL document CHEMBL1148083, “Patuletin acetylrhamnosides from Kalanchoe brasiliensis as inhibitors of human lymphocyte proliferative activity” (J Nat Prod, 1994).
Values after ≈ are worked out from the molar mass of the structure shown.

Test: Inhibition of PHA-induced human lymphocyte proliferation
Type: functional, cell-based
For `COc1c(O[C@@H]2O[C@@H](C)[C@H](O)[C@@H](OC(C)=O)[C@H]2O)cc2oc(-c3ccc(O)c(O)c3)c(O[C@@H]3O[C@@H](C)[C@H](O)[C@@H](O)[C@H]3O)c(=O)c2c1O`, the IC50 was 10 µg/mL (≈ 15 µM). Molecule `COc1c(O[C@@H]2O[C@@H](C)[C@H](O)[C@@H](O)[C@H]2O)cc2oc(-c3ccc(O)c(O)c3)c(O[C@@H]3O[C@@H](C)[C@H](OC(C)=O)[C@@H](O)[C@H]3O)c(=O)c2c1O` [KALAMBROSIDE C] has an IC50 of over 10 µg/mL. With `COc1c(O[C@@H]2O[C@@H](C)[C@H](O)[C@@H](O)[C@H]2OC(C)=O)cc2oc(-c3ccc(O)c(O)c3)c(O[C@@H]3O[C@@H](C)[C@H](OC(C)=O)[C@@H](O)[C@H]3O)c(=O)c2c1O` [KALAMBROSIDE A] the IC50 was 0.5 µg/mL (≈ 0.706 µM). For `COc1c(O[C@@H]2O[C@@H](C)[C@H](O)[C@@H](O)[C@H]2OC(C)=O)cc2oc(-c3ccc(O)c(O)c3)c(O[C@@H]3O[C@@H](C)[C@H](O)[C@@H](O)[C@H]3O)c(=O)c2c1O` [KALAMBROSIDE B], the IC50 was 1 µg/mL (≈ 1.5 µM). For `COc1c(O[C@@H]2O[C@@H](C)[C@H](O)[C@@H](OC(C)=O)[C@H]2O)cc2oc(-c3ccc(O)c(O)c3)c(O[C@@H]3O[C@@H](C)[C@H](OC(C)=O)[C@@H](O)[C@H]3O)c(=O)c2c1O`, the IC50 was 0.25 µg/mL (≈ 0.353 µM).
